Measurements taken from the NIST ThermoML archive (doi:10.1016/j.jct.2016.10.006).
Numbers after ± are expanded uncertainties.

Columns and labels:
[1] = Crystal; DTA
[2] = Molar enthalpy of transition or fusion; details: Crystal; DSC

Normal melting temperature [1]: 148.20 ± 1.1 °C
Molar enthalpy of transition or fusion [2]: 5.36 ± 0.222 kcal/mol
Compound: Cn1cnc([N+](=O)[O-])c1Cl [5-chloro-1-methyl-4-nitroimidazole]
